Results: PMC5773580, “A synthetic combinatorial approach to disabling deviant Hedgehog signaling” (Scientific Reports, 2018)
Several values for one entry are separate records, joined by “and”; a condition that tells them apart may be missing. Identical values can stand only once.

Columns and labels:
[1] = tested on: nuclear HDAC activity (Ac-H3) in NIH-3T3 cells; assay: Acetylation assay, Western blotting for acetylated histone 3 (Ac-H3); type: cell-based; details: 48hrs, Western blot
Experimental: For analyzing acetylation status of histone 3 and tubulin, NIH3T3 cells were grown to confluence in 6-well plates. After 48hrs of treatment with indicated chemicals, cells were lysed in RIPA buffer or 1% NP40/phosphate buffered saline/protease inhibitors (SIGMA, #S8820), the lysate cleared using a microcentrifuge, then 6 × sample loading buffer (Bioland Scientific) added to the supernatant. Proteins were separated on SDS-PAGE (BioRad Criterion TGX Precast Gels). Antibodies used for analyzing the blots were: acetylated tubulin (SIGMA, #T6793), tubulin, acetyl-histone H3 (Lys23), and histone H3 (Cell Signaling Technology, #2125 S, #8848 and #9717, respectively). Chemiluminescence was detected using a Li-COR Odyssey Imaging System.

HDAC4 = target: T1, HDAC4 (Homo sapiens, UniProt P56524); assay: In vitro HDAC profiling (deacetylation assay), HDAC4; type: biochemical; details: for HDAC Activity (Fluorescent counts): Repeat1/Repeat 2
T1 construct: purchased BPS Bioscience #50051-11
Experimental: (§1) HDAC profiling was performed at BPS Bioscience (San Diego, CA). All of the compounds are dissolved in DMSO. A series of dilutions of the compounds were prepared with 10% DMSO in HDAC assay buffer (#50031) and 5 µl of the dilution was added to a 50 µl reaction so that the final concentration of DMSO is 1% in all of reactions. All of the enzymatic reactions were conducted in duplicate at 37 °C for 30 mins, except that the enzyme reactions for HDAC11 were at room temperature for 3 hrs. All of the reactions were performed in a 50 µl mixture containing HDAC assay buffer, 5 µg BSA, an HDAC substrate [HDAC Substrate 3 (BPS number 50037) or HDAC Class 2a Substrate 1 (BPS number 50040)], an HDAC enzyme (#50051-11) and a test compound. After enzymatic reactions, 50 μl of HDAC Developer (#50030) was added to each well and the plate was incubated at room temperature for an additional 20 mins. Fluorescence intensity was measured at an excitation of 360 nm and an emission of 460 nm using a Tecan Infinite M1000 microplate reader. HDAC activity assays were performed in duplicates at each concentration. The fluorescent intensity data were analyzed using the computer software, Graphpad Prism. In the absence of the compound, the fluorescent intensity (Ft) in each data set was defined as 100% activity. In the absence of HDAC, the fluorescent intensity (Fb) in each data set was defined as 0% activity. The percent activity in the presence of each compound was calculated according to the following equation: %activity = (F − Fb)/(Ft − Fb), where F = the fluorescent intensity in the presence of the compound. The values of % activity versus a series of compound concentrations were then plotted using non-linear regression analysis of Sigmoidal dose-response curve generated with the equation Y = B + (T − B)/1 + 10((LogIC50 − X) × Hill Slope), where Y = percent activity, B = minimum percent activity, T = maximum percent activity, X = logarithm of compound and Hill Slope = slope factor or Hill coefficient. The IC50 value was determined by the concentration causing a half-maximal percent activity.

[2] = tested on: SMO-M2 in NIH3T3 (GLI-BS reporter); assay: GLI-BS reporter assay, NIH3T3 cells with SMO-M2 DNA; type: cell-based; details: Mus musculus
Experimental: The HH-responsive firefly luciferase reporter (GLI-BS) and a control Renilla luciferase reporter (SV40-RL) were transfected into indicated cell lines using Effectene (Qiagen) either alone or with indicated DNAs. 24 hrs after transfection, cells were switched to low serum media (3% calf serum), and grown for another 48 hrs. in 5% CO2 in the presence/absence of compounds. 3T3-ShhFL cell line that stably expressing SHH and the two reporters were cultured in a similar fashion. FL and RL activities in lysate generated using Passive Lysis Buffer (Promega) were then assessed using the Dual-Luciferase kit (Promega) and a 96-well plate reading luminometer (BMG). The ratio of FL/RL was calculated and the averaged ratios from three replicates were reported.

[3] = tested on: GLI1 binding to DNA in RMS13 cells; assay: GLI DNA binding assay (biotinylated oligo pulldown); type: cell-based; details: lysate of RMS13 cells treated 48 hrs
Experimental: A detailed protocol for DNA binding assay was previously described. Briefly, cells treated for 48 hrs with compounds were lysed in 1% NP40/phosphate buffered saline/protease inhibitors and cleared using a microcentrifuge. The lysate was then incubated with 0.5 µM of double-strand biotinylated oligonucleotides and 40 µl streptavidin-agarose bead suspension (Thermo Scientific, 20349) for 2 hrs. The streptavidin agarose beads are washed (3X) with 1% NP40/phosphate buffered saline/protease inhibitors and eluted with 2X Laemmli sample buffer. The supernatants are separated on SDS-PAGE and analyzed using western blotting. Antibodies were purchased from the following vendors: GLI1 (Cell Signaling Technology, #2534) and actin (SIGMA, #A5441).

HDAC9 = target: T2, HDAC9 (Homo sapiens, UniProt Q9UKV0); assay: In vitro HDAC profiling (deacetylation assay), HDAC9; type: biochemical; details: for HDAC Activity (Fluorescent counts): Repeat1/Repeat 2
T2 construct: purchased BPS Bioscience #50051-11
Experimental: as §1

[4] = in vitro deacetylation assay, duplicates

T1 sequence (P56524 whole entry): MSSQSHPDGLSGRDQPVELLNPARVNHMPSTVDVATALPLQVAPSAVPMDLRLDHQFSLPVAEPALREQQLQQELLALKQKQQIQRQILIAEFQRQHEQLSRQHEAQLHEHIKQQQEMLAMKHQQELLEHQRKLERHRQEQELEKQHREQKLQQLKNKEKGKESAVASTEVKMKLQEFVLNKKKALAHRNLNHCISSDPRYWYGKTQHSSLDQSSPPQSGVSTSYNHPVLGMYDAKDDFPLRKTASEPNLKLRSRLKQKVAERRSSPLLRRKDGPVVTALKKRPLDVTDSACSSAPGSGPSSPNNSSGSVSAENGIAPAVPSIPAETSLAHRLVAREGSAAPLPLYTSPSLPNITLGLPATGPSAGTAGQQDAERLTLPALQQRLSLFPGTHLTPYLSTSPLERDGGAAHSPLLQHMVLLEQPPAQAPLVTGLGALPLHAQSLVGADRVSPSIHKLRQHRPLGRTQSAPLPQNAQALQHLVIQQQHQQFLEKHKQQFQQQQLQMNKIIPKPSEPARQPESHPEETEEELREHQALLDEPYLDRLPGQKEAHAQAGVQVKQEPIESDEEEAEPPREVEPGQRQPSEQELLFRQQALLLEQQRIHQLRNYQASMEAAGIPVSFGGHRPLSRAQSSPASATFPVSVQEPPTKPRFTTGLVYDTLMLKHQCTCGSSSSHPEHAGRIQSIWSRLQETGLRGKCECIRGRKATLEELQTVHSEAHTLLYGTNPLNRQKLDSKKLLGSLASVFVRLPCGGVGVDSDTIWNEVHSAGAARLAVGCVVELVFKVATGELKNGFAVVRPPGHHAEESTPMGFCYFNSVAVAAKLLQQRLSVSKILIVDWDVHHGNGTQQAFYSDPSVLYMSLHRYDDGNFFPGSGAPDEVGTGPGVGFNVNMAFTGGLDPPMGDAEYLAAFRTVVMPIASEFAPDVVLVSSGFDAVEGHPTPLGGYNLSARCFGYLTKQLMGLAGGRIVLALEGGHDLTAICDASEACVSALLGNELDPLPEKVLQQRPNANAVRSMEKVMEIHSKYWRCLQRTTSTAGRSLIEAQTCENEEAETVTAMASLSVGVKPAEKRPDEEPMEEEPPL
T2 sequence (Q9UKV0 whole entry): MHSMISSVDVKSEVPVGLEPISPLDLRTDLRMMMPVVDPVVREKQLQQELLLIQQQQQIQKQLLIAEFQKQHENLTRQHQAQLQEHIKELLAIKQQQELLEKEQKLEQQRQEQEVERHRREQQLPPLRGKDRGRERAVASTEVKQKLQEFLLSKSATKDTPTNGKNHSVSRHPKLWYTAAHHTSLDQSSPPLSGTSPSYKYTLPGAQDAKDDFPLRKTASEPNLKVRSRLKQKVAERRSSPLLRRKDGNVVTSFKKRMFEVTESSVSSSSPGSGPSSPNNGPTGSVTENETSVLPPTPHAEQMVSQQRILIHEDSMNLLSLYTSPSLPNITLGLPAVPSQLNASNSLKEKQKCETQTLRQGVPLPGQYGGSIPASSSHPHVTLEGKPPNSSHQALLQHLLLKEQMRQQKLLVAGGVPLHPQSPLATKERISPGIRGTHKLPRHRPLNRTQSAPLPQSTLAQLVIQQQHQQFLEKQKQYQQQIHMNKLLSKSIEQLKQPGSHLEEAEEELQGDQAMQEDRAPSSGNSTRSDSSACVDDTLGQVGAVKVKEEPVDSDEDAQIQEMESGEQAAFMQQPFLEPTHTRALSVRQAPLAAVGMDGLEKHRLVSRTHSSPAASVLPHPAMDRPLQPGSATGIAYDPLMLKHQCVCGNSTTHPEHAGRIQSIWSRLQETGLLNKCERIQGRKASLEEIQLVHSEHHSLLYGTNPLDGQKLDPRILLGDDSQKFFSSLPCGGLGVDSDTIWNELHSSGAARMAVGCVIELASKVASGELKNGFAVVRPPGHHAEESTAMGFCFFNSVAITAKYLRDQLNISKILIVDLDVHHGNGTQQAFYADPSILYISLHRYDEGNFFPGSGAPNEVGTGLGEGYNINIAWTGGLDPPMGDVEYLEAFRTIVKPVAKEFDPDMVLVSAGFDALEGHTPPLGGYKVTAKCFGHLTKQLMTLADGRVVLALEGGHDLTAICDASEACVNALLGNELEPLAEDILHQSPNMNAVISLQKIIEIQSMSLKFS

- IC50 (HDAC4; [4]): > 10 µM
- IC50 (HDAC9; [4]): > 10 µM
SMILES: O=C(CCCCCCC(=O)Nc1ccc(Cl)c(C(=O)Nc2ccc(NC(=O)c3cc(Cl)ccc3Cl)cc2)c1)NO [IHR-SAHA]
- HDAC inhibitory activity, accumulation of acetylated histone 3 (ratio Ac-H3 to total H3) [1]: retain HDAC inhibitory activity
- HDAC Activity (Fluorescent counts) (HDAC4; HDAC4, WW01 0 Log nM): 34281 Fluorescent counts and 35156 Fluorescent counts
- HDAC Activity (Fluorescent counts) (HDAC4; HDAC4, WW01 0.5 Log nM): 35257 Fluorescent counts and 33365 Fluorescent counts
- HDAC Activity (Fluorescent counts) (HDAC4; HDAC4, WW01 1 Log nM): 34132 Fluorescent counts and 32561 Fluorescent counts
- HDAC Activity (Fluorescent counts) (HDAC4; HDAC4, WW01 1.5 Log nM): 32307 Fluorescent counts and 33171 Fluorescent counts
- HDAC Activity (Fluorescent counts) (HDAC4; HDAC4, WW01 2 Log nM): 34170 Fluorescent counts and 33741 Fluorescent counts
- HDAC Activity (Fluorescent counts) (HDAC4; HDAC4, WW01 2.5 Log nM): 30594 Fluorescent counts and 30410 Fluorescent counts
- HDAC Activity (Fluorescent counts) (HDAC4; HDAC4, WW01 3 Log nM): 29955 Fluorescent counts and 29639 Fluorescent counts
- HDAC Activity (Fluorescent counts) (HDAC4; HDAC4, WW01 3.5 Log nM): 26541 Fluorescent counts and 27641 Fluorescent counts
- HDAC Activity (Fluorescent counts) (HDAC4; HDAC4, WW01 4 Log nM): 24902 Fluorescent counts and 23203 Fluorescent counts
- HDAC Activity (Fluorescent counts) (HDAC4; HDAC4, WW01 -0.5 Log nM): 34466 Fluorescent counts and 34397 Fluorescent counts
- IC50 [2]: 0.08 µM
- GLI1 binding to immobilized oligos with consensus GLI binding sequence [3]: loss of GLI1 binding
- HDAC Activity (Fluorescent counts) (HDAC9; HDAC9, WW01 0 Log nM): 15707 Fluorescent counts and 17505 Fluorescent counts
- HDAC Activity (Fluorescent counts) (HDAC9; HDAC9, WW01 0.5 Log nM): 15735 Fluorescent counts and 16677 Fluorescent counts
- HDAC Activity (Fluorescent counts) (HDAC9; HDAC9, WW01 1 Log nM): 15823 Fluorescent counts and 16968 Fluorescent counts
- HDAC Activity (Fluorescent counts) (HDAC9; HDAC9, WW01 1.5 Log nM): 15598 Fluorescent counts and 16390 Fluorescent counts
- HDAC Activity (Fluorescent counts) (HDAC9; HDAC9, WW01 2 Log nM): 15941 Fluorescent counts and 16116 Fluorescent counts
- HDAC Activity (Fluorescent counts) (HDAC9; HDAC9, WW01 2.5 Log nM): 14685 Fluorescent counts and 15111 Fluorescent counts
- HDAC Activity (Fluorescent counts) (HDAC9; HDAC9, WW01 3 Log nM): 14898 Fluorescent counts and 14972 Fluorescent counts
- HDAC Activity (Fluorescent counts) (HDAC9; HDAC9, WW01 3.5 Log nM): 13364 Fluorescent counts and 15040 Fluorescent counts
- HDAC Activity (Fluorescent counts) (HDAC9; HDAC9, WW01 4 Log nM): 14972 Fluorescent counts and 13303 Fluorescent counts
- HDAC Activity (Fluorescent counts) (HDAC9; HDAC9, WW01 -0.5 Log nM): 15619 Fluorescent counts and 16563 Fluorescent counts
